Values quoted from earlier work in US20120238596A1, “FORMULATIONS COMPRISING PALONOSETRON” (DR. REDDY'S LABORATORIES, INC., priority 2008, published 2012).

Molecular target: T1, serotonin subtype 3 (5-HT3) receptor (Homo sapiens, UniProt P46098)
T1 sequence (P46098 24-478): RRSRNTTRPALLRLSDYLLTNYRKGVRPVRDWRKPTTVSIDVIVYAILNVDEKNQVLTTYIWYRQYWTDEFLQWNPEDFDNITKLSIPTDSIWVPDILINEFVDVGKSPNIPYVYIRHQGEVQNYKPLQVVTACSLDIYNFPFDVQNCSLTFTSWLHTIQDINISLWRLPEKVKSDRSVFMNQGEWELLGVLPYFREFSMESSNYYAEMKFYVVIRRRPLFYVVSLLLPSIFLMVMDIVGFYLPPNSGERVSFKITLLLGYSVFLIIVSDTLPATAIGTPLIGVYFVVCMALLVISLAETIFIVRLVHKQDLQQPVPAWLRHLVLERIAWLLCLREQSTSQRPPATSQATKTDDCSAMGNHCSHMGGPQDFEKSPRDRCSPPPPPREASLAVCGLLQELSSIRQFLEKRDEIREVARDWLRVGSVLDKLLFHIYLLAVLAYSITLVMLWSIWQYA

- binding affinity for 5-HT3 receptor: strong binding affinity
SMILES: Cl.O=C1c2cccc3c2[C@H](CCC3)CN1[C@@H]1CN2CCC1CC2 [Palonosetron hydrochloride, (3a5)-2-[(S)-1-Azabicyclo [2.2.2]oct-3-yl]-2,3,3a,4,5,6-hexahydro-1-oxo-1H-benz [de]isoquinoline hydrochloride]
